Experimental data taken from ChEMBL document CHEMBL1287770, “A protected l-bromophosphonomethylphenylalanine amino acid derivative (BrPmp) for synthesis of irreversible protein tyrosine phosphatase inhibitors” (Bioorg Med Chem, 2010).
The source made the active and inactive calls. The rule behind the calls is not given here.

Legend:
[1] = biological target: T1, Receptor-type tyrosine-protein phosphatase C (Homo sapiens, UniProt P08575); test: Inhibition of human CD45-cytoplasmic domain at 1500 uM after 10 mins by Kitz-Wilson analysis
T1 sequence (P08575 whole entry): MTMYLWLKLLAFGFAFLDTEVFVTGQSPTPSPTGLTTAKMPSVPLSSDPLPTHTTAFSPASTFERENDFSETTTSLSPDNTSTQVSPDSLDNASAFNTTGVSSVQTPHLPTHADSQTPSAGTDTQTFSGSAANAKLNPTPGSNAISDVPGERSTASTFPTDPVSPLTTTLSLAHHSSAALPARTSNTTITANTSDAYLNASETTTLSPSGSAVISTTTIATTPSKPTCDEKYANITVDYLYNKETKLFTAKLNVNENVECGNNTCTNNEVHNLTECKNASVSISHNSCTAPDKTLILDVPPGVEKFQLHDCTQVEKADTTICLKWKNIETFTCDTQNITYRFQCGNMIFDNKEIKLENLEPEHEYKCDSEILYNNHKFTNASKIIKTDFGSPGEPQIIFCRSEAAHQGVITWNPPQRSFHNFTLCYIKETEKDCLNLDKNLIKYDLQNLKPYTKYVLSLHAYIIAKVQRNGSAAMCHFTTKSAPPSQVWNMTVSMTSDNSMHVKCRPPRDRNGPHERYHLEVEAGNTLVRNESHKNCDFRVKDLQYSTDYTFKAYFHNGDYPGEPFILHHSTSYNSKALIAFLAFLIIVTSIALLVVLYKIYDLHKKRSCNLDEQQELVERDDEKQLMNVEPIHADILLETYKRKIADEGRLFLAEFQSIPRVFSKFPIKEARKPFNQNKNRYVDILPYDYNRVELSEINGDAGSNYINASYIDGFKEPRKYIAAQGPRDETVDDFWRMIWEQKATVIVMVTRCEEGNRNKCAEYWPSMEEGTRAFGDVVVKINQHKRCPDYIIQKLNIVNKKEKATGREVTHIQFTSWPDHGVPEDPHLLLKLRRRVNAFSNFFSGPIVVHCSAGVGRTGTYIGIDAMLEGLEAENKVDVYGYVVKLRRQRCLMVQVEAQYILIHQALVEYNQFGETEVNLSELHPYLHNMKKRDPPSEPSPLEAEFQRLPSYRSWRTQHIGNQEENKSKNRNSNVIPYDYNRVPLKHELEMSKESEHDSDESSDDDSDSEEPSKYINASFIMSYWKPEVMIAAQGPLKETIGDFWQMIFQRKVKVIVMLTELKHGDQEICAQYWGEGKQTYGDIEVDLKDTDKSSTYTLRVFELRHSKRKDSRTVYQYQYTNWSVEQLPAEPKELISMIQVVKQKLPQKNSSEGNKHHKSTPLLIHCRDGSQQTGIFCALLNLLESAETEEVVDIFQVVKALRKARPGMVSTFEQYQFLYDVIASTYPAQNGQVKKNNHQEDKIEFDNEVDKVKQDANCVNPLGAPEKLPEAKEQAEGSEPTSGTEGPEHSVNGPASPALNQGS

[2] = biological target: T2, Receptor-type tyrosine-protein phosphatase C (Homo sapiens) (UniProt P08575); test: Competitive inhibition of human CD45-cytoplasmic domain after 10 mins
T2 sequence (whole entry): T1 sequence (P08575 whole entry)

[3] = biological target: T2, Receptor-type tyrosine-protein phosphatase C (Homo sapiens); test: Competitive inhibition of human CD45-cytoplasmic domain; settings: TDE = time-dependent effect
[4] = biological target: T1, Receptor-type tyrosine-protein phosphatase C; test: Inhibition of human CD45-cytoplasmic domain at 150 uM after 10 mins by Kitz-Wilson analysis
[5] = compound: CC(C)C[C@H](NC(=O)[C@H](Cc1ccc(C(Br)P(=O)(O)O)cc1)NC(=O)[C@@H](N)CC(=O)O)C(=O)O; test: Inhibition of human CD45-cytoplasmic domain at 35 uM after 10 mins by Michaelis-Menten equation analysis
[6] = compound: N[C@@H](Cc1ccc(C(Br)P(=O)(O)O)cc1)C(=O)O; test: Inhibition of human CD45-cytoplasmic domain at 150 uM after 10 mins by Michaelis-Menten equation analysis

With `O=P(O)(O)C(Br)c1ccccc1` (configuration not stated) [[BROMO(PHENYL)METHYL]PHOSPHONIC ACID] the Ki [1] was “Not Active”.

In the case of `CC(C)C[C@H](NC(=O)[C@H](Cc1ccc(C(Br)P(=O)(O)O)cc1)NC(=O)[C@@H](N)CC(=O)O)C(=O)O` (some centres not stated), the inhibition [2] is reported as “inactive”.

For `N[C@@H](Cc1ccc(C(Br)P(=O)(O)O)cc1)C(=O)O` (some centres not stated), the inhibition [3] was “tde”, the Ki [4] was 40 µM and the inhibition [2] was “inactive”.

B1: Receptor-type tyrosine-protein phosphatase C (Homo sapiens), P08575 (protein)
chain: T1 sequence (P08575 whole entry)
With B1 the Km [5] was 141 µM and the Km [6] was 141 µM.
